Reference: patent EP4800015A1, “AZABICYCLO DERIVATIVE AND PREPARATION METHOD THEREFOR, AND USE” (Zhejiang Hisun Pharmaceutical Co., Ltd., priority 2023, dated 2025)

Assays:
recombinant human WRN = molecular target: T1, recombinant human WRN (Homo sapiens, UniProt Q14191); test: Inhibition of WRN enzyme activity (ATPase), ADP-Glo Kinase Assay; assay type: biochemical; conditions: WRN protein 5 nM, Flap 0.1 nM, ATP 30 µM; read-out: IC50
T1 construct: purchased BPS 101264
Method in brief: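 ATPase activity was measured by ADP-Glo luminescence after a 10-min room-temperature reaction with 30 µM ATP and 0.1 nM Flap26 oligonucleotide substrate. The 5 nM WRN had first been exposed to compound (0.004–1000 nM) for 15 min in pH 7.5 Tris buffer with 2 mM MgCl2. IC50 values came from log-concentration regression against the DMSO control.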

SW48 cells = test: Inhibition of SW48 cell proliferation (CellTiter-Glo); assay type: cell-based; conditions: Homo sapiens; SW48 cells (MSI-H), 120 hours
Method in brief: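 SW48 (MSI-H) cells in L-15 with 10% FBS were seeded at 500 per well, cultured overnight at 37 °C, then exposed to compound at final concentrations of 10000 nM to 1.52 nM for 120 h. Viability was read by CellTiter-Glo luminescence, with inhibition relative to 0.1% DMSO. IC50 from nonlinear regression of log concentration versus inhibition.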

RL95-2 cells = test: Inhibition of RL95-2 cell proliferation (CellTiter-Glo); assay type: cell-based; conditions: Homo sapiens; RL95-2 cells (MSI-H), 120 hours
Method in brief: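 Proliferation IC50 derived by nonlinear regression of % inhibition against log concentration, with 0.1% DMSO wells as reference. CellTiter-Glo luminescence was read after 120 h of compound exposure (10000 nM down to 1.52 nM final) at 37 °C. MSI-H RL95-2 cells seeded at 500/well in DMEM/F12 with 10% FBS the day before.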

T1 sequence (Q14191 whole entry): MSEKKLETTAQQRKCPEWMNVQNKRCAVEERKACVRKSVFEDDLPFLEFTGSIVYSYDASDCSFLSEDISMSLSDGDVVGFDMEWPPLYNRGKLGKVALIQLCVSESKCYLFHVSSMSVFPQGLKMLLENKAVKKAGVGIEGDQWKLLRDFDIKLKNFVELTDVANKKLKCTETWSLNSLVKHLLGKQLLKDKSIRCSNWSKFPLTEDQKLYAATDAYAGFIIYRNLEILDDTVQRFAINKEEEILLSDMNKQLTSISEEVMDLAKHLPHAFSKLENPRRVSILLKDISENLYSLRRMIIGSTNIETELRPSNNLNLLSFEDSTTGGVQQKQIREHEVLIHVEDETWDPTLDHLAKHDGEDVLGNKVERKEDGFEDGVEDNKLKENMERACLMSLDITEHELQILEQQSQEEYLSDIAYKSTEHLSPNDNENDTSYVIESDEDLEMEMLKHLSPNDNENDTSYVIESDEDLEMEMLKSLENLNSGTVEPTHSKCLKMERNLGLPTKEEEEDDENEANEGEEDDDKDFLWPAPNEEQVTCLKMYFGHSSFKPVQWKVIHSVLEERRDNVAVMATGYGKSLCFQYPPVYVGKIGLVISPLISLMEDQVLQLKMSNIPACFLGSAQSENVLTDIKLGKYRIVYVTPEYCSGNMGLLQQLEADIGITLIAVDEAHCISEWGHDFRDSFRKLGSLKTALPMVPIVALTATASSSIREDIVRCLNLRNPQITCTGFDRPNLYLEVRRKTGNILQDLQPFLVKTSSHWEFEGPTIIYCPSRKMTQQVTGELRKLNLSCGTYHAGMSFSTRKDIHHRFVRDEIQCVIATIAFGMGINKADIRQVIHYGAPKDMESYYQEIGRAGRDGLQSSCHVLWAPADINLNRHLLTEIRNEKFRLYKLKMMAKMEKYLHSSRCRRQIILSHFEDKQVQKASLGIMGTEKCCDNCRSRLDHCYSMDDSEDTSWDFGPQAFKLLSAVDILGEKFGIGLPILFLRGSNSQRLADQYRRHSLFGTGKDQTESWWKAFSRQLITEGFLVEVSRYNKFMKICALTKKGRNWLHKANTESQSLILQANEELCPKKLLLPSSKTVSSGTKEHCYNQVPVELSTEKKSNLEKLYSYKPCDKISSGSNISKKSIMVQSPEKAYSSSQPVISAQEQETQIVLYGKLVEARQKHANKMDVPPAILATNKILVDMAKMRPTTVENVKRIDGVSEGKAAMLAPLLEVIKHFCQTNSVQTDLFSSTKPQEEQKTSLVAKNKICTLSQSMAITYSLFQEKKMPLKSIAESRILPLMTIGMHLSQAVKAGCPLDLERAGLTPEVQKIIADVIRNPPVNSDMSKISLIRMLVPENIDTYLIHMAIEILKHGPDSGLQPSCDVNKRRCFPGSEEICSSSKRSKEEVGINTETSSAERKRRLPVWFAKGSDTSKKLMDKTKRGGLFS

SMILES	IC50 (recombinant human WRN) [nM]	IC50 (SW48 cells) [nM]	IC50 (RL95-2 cells) [nM]
CCc1c(N2CCN(C(=O)c3ncnc(C)c3O)CC2)c(=O)n2nc(-c3ccc4c(c3)CCO4)nc2n1CC(=O)Nc1ccc(S(F)(F)(F)(F)F)cc1C [Example 88, 2-(2-(2,3-dihydrobenzofuran-5-yl)-5-ethyl-6-(4-(5-hydroxy-6-methylpyrimidine-4-carbonyl)piperazin-1-yl)-7-oxo-[1,2,4]triazolo[1,5-a]pyrimidin-4(7H)-yl)-N-(2-methyl-4-(pentafluoro-λ^6-sulfaneyl)phenyl)acetamide]	1 to 100	1 to 100	1 to 100
CCc1c(N2CCN(C(=O)c3nccc(Cl)c3O)CC2)c(=O)n2nc(C3=CC4COCC4C3)nc2n1CC(=O)Nc1ccc(C(F)(F)F)cc1Cl (stereo not drawn) [Example 188, 2-(6-(4-(4-chloro-3-hydroxypicolinoyl)piperazin-1-yl)-5-ethyl-7-oxo-2-(3,3a,4,6a-tetrahydro-1H-cyclopenta[c]furan-5-yl)-[1,2,4]triazolo[1,5-a]pyrimidin-4(7H)-yl)-N-(2-chloro-4-(trifluoromethyl)phenyl)acetamide]	1 to 100	1 to 100	1 to 100
CCc1c(N2CCN(C(=O)c3ncnc(C)c3O)CC2)c(=O)n2nc(C3=CC4CC4C3)nc2n1CC(=O)Nc1ccc(C(F)(F)F)cc1Cl (stereo not drawn) [Example 18, 2-(2-(bicyclo[3.1.0]hex-2-en-3-yl)-5-ethyl-6-(4-(5-hydroxy-6-methylpyrimidine-4-carbonyl)piperazin-1-yl)-7-oxo-[1,2,4]triazolo[1,5-a]pyrimidin-4(7H)-yl)-N-(2-chloro-4-(trifluoromethyl)phenyl)acetamide]	1 to 100	1 to 100	1 to 100
CCc1c(C2=CCN(C(=O)c3ncnc(C)c3O)CC2)c(=O)n2nc(-c3ccc4c(c3)CCO4)nc2n1CC(=O)Nc1ccc(C(F)(F)F)cc1Cl [Example 149, N-(2-chloro-4-(trifluoromethyl)phenyl)-2-(2-(2,3-dihydrobenzofuran-5-yl)-5-ethyl-6-(1-(5-hydroxy-6-methylpyrimidine-4-carbonyl)-1,2,3,6-tetrahydropyridin-4-yl)-7-oxo-[1,2,4]triazolo[1,5-a]pyrimidin-4(7H)-yl)acetamide]	1 to 100	1 to 100	1 to 100
CCc1c(N2CCN(C(=O)c3ncnc(C)c3O)CC2)c(=O)n2nc(C3=CCCCCC3)nc2n1CC(=O)Nc1ccc(C(F)(F)F)cc1F [Example 49, 2-(2-(cyclohept-1-en-1-yl)-5-ethyl-6-(4-(5-hydroxy-6-methylpyrimidine-4-carbonyl)piperazin-1-yl)-7-oxo-[1,2,4]triazolo[1,5-a]pyrimidin-4(7H)-yl)-N-(2-fluoro-4-(trifluoromethyl)phenyl)acetamide]	1 to 100	1 to 100	1 to 100
CCc1c(N2CCN(C(=O)c3ncnc(C)c3O)CC2)c(=O)n2nc(-c3ccc4c(c3)CNCCO4)nc2n1CC(=O)Nc1ccc(C(F)(F)F)cc1Cl [Example 142, N-(2-chloro-4-(trifluoromethyl)phenyl)-2-(5-ethyl-6-(4-(5-hydroxy-6-methylpyrimidine-4-carbonyl)piperazin-1-yl)-7-oxo-2-(2,3,4,5-tetrahydrobenzo[f][1,4]oxazepin-7-yl)-[1,2,4]triazolo[1,5-a]pyrimidin-4(7H)-yl)acetamide]	1 to 100	1 to 100	1 to 100
CCc1c(N2CCN(C(=O)c3ncnc(C)c3O)CC2)c(=O)n2nc(C3=CCCCCC3)nc2n1CC(=O)Nc1ccc(C(F)(F)F)cc1C [Example 47, 2-(2-(cyclohept-1-en-1-yl)-5-ethyl-6-(4-(5-hydroxy-6-methylpyrimidine-4-carbonyl)piperazin-1-yl)-7-oxo-[1,2,4]triazolo[1,5-a]pyrimidin-4(7H)-yl)-N-(2-methyl-4-(trifluoromethyl)phenyl) acetamide]	1 to 100	1 to 100	1 to 100
CCc1c(N2CCN(C(=O)c3ncnc(C)c3O)CC2)c(=O)n2nc(C3=CCCCOC3)nc2n1CC(=O)Nc1ccc(S(F)(F)(F)(F)F)cc1C [Example 158, 2-(5-ethyl-6-(4-(5-hydroxy-6-methylpyrimidine-4-carbonyl)piperazin-1-yl)-7-oxo-2-(2,5,6,7-tetra hydrooxepin-3-yl)-[1,2,4]triazolo[1,5-a]pyrimidin-4(7H)-yl)-N-(2-methyl-4-(pentafluoro-λ^6-sulfaneyl)phenyl)acetamide]	1 to 100	1 to 100	1 to 100
CCc1c(N2CCN(C(=O)c3ncnc(C)c3O)CC2)c(=O)n2nc(-c3cccc4c3OCC4)nc2n1CC(=O)Nc1ccc(C(F)(F)F)cc1Cl [Example 154, N-(2-chloro-4-(trifluoromethyl)phenyl)-2-(2-(2,3-dihydrobenzofuran-7-yl)-5-ethyl-6-(4-(5-hydroxy-6-methylpyrimidine-4-carbonyl)piperazin-1-yl)-7-oxo-[1,2,4]triazolo[1,5-a]pyrimidin-4(7H)-yl)acetamide]	1 to 100	1 to 100	1 to 100
CCc1c(N2CCN(C(=O)c3ncnc(C)c3O)CC2)c(=O)n2nc(-c3cc4ccccc4s3)nc2n1CC(=O)Nc1ccc(S(F)(F)(F)(F)F)cc1 [Example 98, 2-(2-(benzo[b]thiophen-2-yl)-5-ethyl-6-(4-(5-hydroxy-6-methylpyrimidine-4-carbonyl)piperazin-1-yl)-7-oxo-[1,2,4]triazolo[1,5-a]pyrimidin-4(7H)-yl)-N-(4-(pentafluoro-λ^6-sulfaneyl)phenyl)acet amide]	1 to 100	1 to 100	1 to 100

Continued, in another order:

IC50 (recombinant human WRN) [nM]	IC50 (SW48 cells) [nM]	SMILES	IC50 (RL95-2 cells) [nM]
1 to 100	1 to 100	CCc1c(N2CCN(C(=O)c3ncnc(C)c3O)CC2)c(=O)n2nc(-c3ccc4nccn4c3)nc2n1CC(=O)Nc1ccc(C(F)(F)F)cc1Cl [Example 126, N-(2-chloro-4-(trifluoromethyl)phenyl)-2-(5-ethyl-6-(4-(5-hydroxy-6-methylpyrimidine-4-carbonyl)piperazin-1-yl)-2-(imidazo[1,2-a]pyridin-6-yl)-7-oxo-[1,2,4]triazolo[1,5-a]pyrimidin-4(7H)-yl)acetamide]	1 to 100
1 to 100	1 to 100	CCc1c(N2CCN(C(=O)c3ncnc(C)c3O)CC2)c(=O)n2nc(-c3cc4cnccc4s3)nc2n1CC(=O)Nc1ccc(C(F)(F)F)cc1Cl [Example 153, N-(2-chloro-4-(trifluoromethyl)phenyl)-2-(5-ethyl-6-(4-(5-hydroxy-6-methylpyrimidine-4-carbonyl)piperazin-1-yl)-7-oxo-2-(thieno[3,2-c]pyridin-2-yl)-[1,2,4]triazolo[1,5-a]pyrimidin-4(7H)-yl)a cetamide]	1 to 100
1 to 100	1 to 100	[2H]C([2H])([2H])n1ccc2cc(-c3nc4n(CC(=O)Nc5ccc(C(F)(F)F)cc5Cl)c(CC)c(N5CCN(C(=O)c6ncnc(C)c6O)CC5)c(=O)n4n3)ccc21 [Example 185, N-(2-chloro-4-(trifluoromethyl)phenyl)-2-(5-ethyl-6-(4-(5-hydroxy-6-methylpyrimidine-4-carbonyl)piperazin-1-yl)-2-(1-(methyl-d3)-1H-indol-5-yl)-7-oxo-[1,2,4]triazolo[1,5-a]pyrimidin-4(7H)-yl)acetamide]	1 to 100
1 to 100	1 to 100	CCc1c(N2CCN(C(=O)c3ncnc(C)c3O)CC2)c(=O)n2nc(-c3ccc4[nH]ccc4c3)nc2n1CC(=O)Nc1ccc(C(F)(F)F)cc1Cl [Example 102, N-(2-chloro-4-(trifluoromethyl)phenyl)-2-(5-ethyl-6-(4-(5-hydroxy-6-methylpyrimidine-4-carbonyl)piperazin-1-yl)-2-(1H-indol-5-yl)-7-oxo-[1,2,4]triazolo[1,5-a]pyrimidin-4(7H)-yl)acetamide]	1 to 100
1 to 100	1 to 100	CCc1c(N2CCN(C(=O)c3ncnc(C)c3O)CC2)c(=O)n2nc(-c3ccc4n[nH]cc4c3)nc2n1CC(=O)Nc1ccc(C(F)(F)F)cc1Cl [Example 112, N-(2-chloro-4-(trifluoromethyl)phenyl)-2-(5-ethyl-6-(4-(5-hydroxy-6-methylpyrimidine-4-carbonyl)piperazin-1-yl)-2-(1H-indazol-5-yl)-7-oxo-[1,2,4]triazolo[1,5-a]pyrimidin-4(7H)-yl)acetamide]	1 to 100
1 to 100	1 to 100	CCc1c(N2CCN(C(=O)c3ncnc(C)c3O)CC2)c(=O)n2nc(-c3ccc4c(ccn4CC)c3)nc2n1CC(=O)Nc1ccc(C(F)(F)F)cc1Cl [Example 183, N-(2-chloro-4-(trifluoromethyl)phenyl)-2-(5-ethyl-2-(1-ethyl-1H-indol-5-yl)-6-(4-(5-hydroxy-6-methylpyrimidine-4-carbonyl)piperazin-1-yl)-7-oxo-[1,2,4]triazolo[1,5-a]pyrimidin-4(7H)-yl)ace tamide]	1 to 100
1 to 100	1 to 100	CCc1c(N2CCN(C(=O)c3ncnc(C)c3O)CC2)c(=O)n2nc(-c3ccc4sccc4c3)nc2n1CC(=O)Nc1ccc(C(F)(F)F)cc1Cl [Example 54, 2-(2-(benzo[b]thiophen-5-yl)-5-ethyl-6-(4-(5-hydroxy-6-methylpyrimidine-4-carbonyl)piperazin-1-yl)-7-oxo-[1,2,4]triazolo[1,5-a]pyrimidin-4(7H)-yl)-N-(2-chloro-4-(trifluoromethyl)phenyl)acet amide]	1 to 100
